Experimental findings from patent US12336981B2, “Compounds and compositions for the inhibition of NAMPT” (Valo Health, Inc., priority 2010, dated 2025) are described below.

Assay [1] has as its system U251 cells. The assay can be described thus: In-vitro cell proliferation assay (SRB), U251 cells. The format is cell-based. As to conditions: Homo sapiens, U-251, 72 hours. As to the method: After overnight incubation at 37° C. and 5% CO2, the compound titrations were performed in a separate dilution plate by serially diluting the compounds in DMSO to make a 1000× stock. The compounds were then further diluted to 10× final concentration in culture media, whereupon 20 μL of each dilution was added to the plated cells with controls (e.g. DMSO and blank) to make a final volume of 5 200 μL. The final DMSO concentration in each well was 0.1%. The plates were then incubated for 72 hours at 37° C. in a 5% CO2 incubator. The number of viable cells was then assessed using sulforhodamine B (SRB) assay. Cells were fixed at 4° C. for 1 hour with the addition of 50 μL 30% trichloroacetic acid (TCA) to make a final concentration of 6% 10 TCA. The plates were washed four times with H2O and allowed to dry for at least 1 hour, whereupon 100 μL of a 4% SRB in 1% acetic acid solution was added to each well and incubated at room temperature for at least 30 minutes. The plates were then washed three times with 1% acetic acid, dried, and treated with 100 μL of 10 mM Tris-Base solution. The plates were then read in a microplate reader at an absorbance of 570 nm. 15 Background was generated on a separate plate with media only. Method for Determining % Inhibition First, the signals from the background plate are averaged, then the background was subtracted from the test plates.

Assay [2] concerns A2780 cells. The experiment in a line: In-vitro cell proliferation assay (SRB), A2780 cells. The format is cell-based. As to conditions: Homo sapiens, A2780, 72 h, A2780 cells, 72 hours, read-out: A2780 IC50. An outline of the steps: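 SRB read-out: 6% TCA fix 1 h at 4° C., stain, Tris solubilize, A570. Media-only background subtracted; % inhibition from two compound concentrations.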

In assay [3] the target is T1, NAMPT (Homo sapiens, UniProt P43490).
T1 construct: His tag; host or cells: E. coli
T1 sequence (P43490 whole entry): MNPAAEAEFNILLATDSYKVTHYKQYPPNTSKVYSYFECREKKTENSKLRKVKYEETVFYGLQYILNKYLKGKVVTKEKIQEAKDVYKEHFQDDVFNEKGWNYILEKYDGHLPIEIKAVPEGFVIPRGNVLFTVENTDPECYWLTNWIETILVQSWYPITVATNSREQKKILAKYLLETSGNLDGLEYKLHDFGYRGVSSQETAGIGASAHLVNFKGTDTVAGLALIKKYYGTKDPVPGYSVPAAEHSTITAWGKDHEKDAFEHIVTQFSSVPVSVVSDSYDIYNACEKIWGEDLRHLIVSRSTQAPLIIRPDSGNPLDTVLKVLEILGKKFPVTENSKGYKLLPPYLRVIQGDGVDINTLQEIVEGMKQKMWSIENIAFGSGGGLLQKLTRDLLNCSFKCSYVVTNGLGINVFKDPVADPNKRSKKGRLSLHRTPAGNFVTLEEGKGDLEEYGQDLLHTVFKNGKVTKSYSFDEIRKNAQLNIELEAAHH
The assay can be described thus: Biochemical inhibition assay: NAMPT enzymatic reaction, NMN quantified by mass spectrometry. The settings on record: read-out: Biochem IC50. The procedure, abridged:
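Inhibition of E. coli-expressed His-tagged human NAMPT, measured as NMN formation by mass spectrometry after a 30 min room-temperature reaction containing 1 μM NAM, 100 μM PRPP and 2.5 mM ATP.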

As a reminder, the IC50 is the concentration needed to halve the response being measured.

Structures are written as SMILES. Read-outs that look alike come from different tables or passages of the source. Some results are limits rather than exact numbers.

On to `O=C(NCc1ccc(S(=O)(=O)c2ccccc2)cn1)c1cc2cnccc2[nH]1` [N-{[5-(benzenesulfonyl)pyridin-2-yl]methyl}-1H-pyrrolo[3,2-c]pyridine-2-carboxamide], for which it took 35 nM to reach half-maximal inhibition in assay [1] (IC50).

`COc1ccc(OC)c(S(=O)(=O)c2ccc(CNC(=O)c3cc4cnccc4[nH]3)cc2)c1` [N-({4-[(2,5-dimethoxybenzene)sulfonyl]phenyl}methyl)-1H-pyrrolo[3,2-c]pyridine-2-carboxamide]: the results for the IC50 in assay [2] (SRB) and in assay [3] (NAMPT enzymatic assay) were 6 nM and 17 nM, respectively.

For the compound `O=C(NCc1ccc(S(=O)(=O)c2cc(F)cc(C(F)(F)F)c2)cc1)c1cc2ccncc2s1` [N-[(4-{[3-fluoro-5-(trifluoromethyl)benzene]sulfonyl}phenyl)methyl]thieno[2,3-c]pyridine-2-carboxamide], the figures for the IC50 in assay [2] (SRB) and in assay [3] (NAMPT enzymatic assay) were 3.1 nM and 10.2 nM, respectively.

As to `CN(C)C(=O)c1ccccc1S(=O)(=O)c1ccc(CNC(=O)c2cc3ccncc3o2)cc1`, the IC50 in assay [2] (SRB) lay within 1000 to 10000 nM; in assay [3] (NAMPT enzymatic assay), 100 to 1000 nM.

With `Cc1ccc(S(=O)(=O)c2ccc(CNC(=O)c3cc4ccncc4s3)cc2)c(Cl)c1`, the IC50 in assay [2] (SRB) is 1.6 nM; in assay [3] (NAMPT enzymatic reaction) it was 24.9 nM.

Consider `CN1CCN(c2ccc(S(=O)(=O)c3ccc(CNC(=O)c4cc5ccncc5o4)cc3)cc2)CC1`, for which the IC50 amounted to 0.5 nM in assay [2] (SRB) and 1 nM in assay [3] (NAMPT enzymatic assay).

Turning to `O=C(NCc1ccc(S(=O)(=O)c2ccc(CO)cc2)cc1)c1cc2ccncc2o1`, the IC50 was found to be 6.2 nM in assay [2] (SRB) and 4.9 nM in assay [3] (NAMPT enzymatic assay).

As to `COCc1cccc(S(=O)(=O)c2ccc(CNC(=O)c3ccc4nccn4c3)cc2)c1`, the IC50 in assay [2] (SRB) came out at 6.8 nM; in assay [3] (NAMPT enzymatic assay), 6.7 nM.

Turning to `COc1cccc(S(=O)(=O)c2ccc(CNC(=O)c3cnc4nccn4c3)cc2)c1OC`, the results for the IC50 in assay [2] (SRB) and in assay [3] (NAMPT enzymatic reaction) were 77.6 nM and 17.6 nM, respectively.

For `CCCCOc1ccc(S(=O)(=O)c2ccc(CNC(=O)c3cc4cnccc4[nH]3)cc2)cc1F`, the IC50 in assay [2] (SRB) is 13.4 nM; in assay [3] (NAMPT enzymatic reaction) it was 53.6 nM.

Regarding `Cc1ccc(Cl)cc1S(=O)(=O)c1ccc(CNC(=O)c2cnc3[nH]ncc3c2)cc1` [N-({4-[(5-chloro-2-methylbenzene)sulfonyl]phenyl}methyl)-1H-pyrazolo[3,4-b]pyridine-5-carboxamide], the IC50 in assay [2] (SRB) turned out to be 13.9 nM; in assay [3] (NAMPT enzymatic reaction), 22.7 nM.

In the case of `COc1cc(C)cc(S(=O)(=O)c2ccc(CNC(=O)c3cc4ccncc4s3)cc2)c1OC` [N-({4-[(2,3-dimethoxy-5-methylbenzene)sulfonyl]phenyl}methyl)thieno[2,3-c]pyridine-2-carboxamide], the IC50 was determined as 2.7 nM in assay [2] (SRB) and 6 nM in assay [3] (NAMPT enzymatic assay).

With `Cn1ncc2ccc(S(=O)(=O)c3ccc(CNC(=O)c4cnc5[nH]ncc5c4)cc3)cc21` [N-{[4-(1-methyl-1H-indazole-6-sulfonyl)phenyl]methyl}-1H-pyrazolo[3,4-b]pyridine-5-carboxamide], the IC50 in assay [2] (SRB) worked out at 3 nM; in assay [3] (NAMPT enzymatic assay), 4 nM.

Take `COc1ccc(S(=O)(=O)c2ccc(CNC(=O)c3cnc4nccn4c3)cc2)cc1C`: the IC50 in assay [2] (SRB) turned out to be 5.5 nM; in assay [3] (NAMPT enzymatic reaction), 2.2 nM.

For the compound `O=C(NCc1ccc(S(=O)(=O)c2cccc(C(=O)N3CCOCC3)c2)cc1)c1cnc2[nH]ncc2c1`, the IC50 in assay [2] (SRB) is 100 to 1000 nM; in assay [3] (NAMPT enzymatic assay), 124 nM.

For the compound `O=C(NCc1ccc(S(=O)(=O)c2cc(F)ccc2CO)cc1)c1ccc2nccn2c1`, the IC50 is 65 nM in assay [2] (SRB) and 10.4 nM in assay [3] (NAMPT enzymatic assay).

Turning to `CN(C)c1ncc(S(=O)(=O)c2ccc(CNC(=O)c3cc4ccncc4o3)cc2)cn1` [N-({4-[2-(dimethylamino)pyrimidine-5-sulfonyl]phenyl}methyl)furo[2,3-c]pyridine-2-carboxamide], the IC50 in assay [2] (SRB) came to 12 nM; in assay [3] (NAMPT enzymatic assay), 25.8 nM.

Regarding `COc1ccc(C(C)C)cc1S(=O)(=O)c1ccc(CNC(=O)c2cc3ccncc3o2)cc1`, the IC50 turned out to be 12.4 nM in assay [2] (SRB) and 15.4 nM in assay [3] (NAMPT enzymatic assay).

In the case of `COc1ccc(C(C)C)cc1S(=O)(=O)c1ccc(CNC(=O)c2cnc3[nH]ncc3c2)cc1` [N-[(4-{[2-methoxy-5-(propan-2-yl)benzene]sulfonyl}phenyl)methyl]-1H-pyrazolo[3,4-b]pyridine-5-carboxamide], the IC50 was 29.4 nM in assay [2] (SRB) and 89.2 nM in assay [3] (NAMPT enzymatic assay).

Consider `COc1cc(C)cc(S(=O)(=O)c2ccc(CNC(=O)c3ccc4nccn4c3)cc2)c1`, for which the results for the IC50 in assay [2] (SRB) and in assay [3] (NAMPT enzymatic reaction) were 1.6 nM and 5.3 nM, respectively.

Take `O=C(NCc1ccc(S(=O)(=O)c2cccc(N3CCOCC3)c2)cc1)c1ccc2nccn2c1`: the IC50 in assay [2] (SRB) turned out to be 3.3 nM; in assay [3] (NAMPT enzymatic assay) it was 7.7 nM.

For `Cc1cc(C)cc(S(=O)(=O)c2ccc(CNC(=O)c3cc4ccncc4o3)cc2)c1`, the values for the IC50 in assay [2] (SRB) and in assay [3] (NAMPT enzymatic reaction) were 2.8 nM and 16.7 nM, respectively.

With `N#Cc1cccc(S(=O)(=O)c2ccc(CNC(=O)c3cc4cnccc4[nH]3)cc2)c1`, the results for the IC50 in assay [2] (SRB) and in assay [3] (NAMPT enzymatic reaction) were 11.3 nM and 12.1 nM, respectively.

Take `CC(C)c1ccc(S(=O)(=O)c2ccc(CNC(=O)c3cnc4nccn4c3)cc2)cc1`: the IC50 in assay [2] (SRB) is 8.1 nM; in assay [3] (NAMPT enzymatic assay), 1.7 nM.

`O=C(NCc1ccc(S(=O)(=O)c2cc(F)ccc2Cl)cc1)c1cnc2nccn2c1`: the results for the IC50 in assay [2] (SRB) and in assay [3] (NAMPT enzymatic reaction) were 53 nM and 10.5 nM, respectively.

Turning to `O=C(NCc1ccc(S(=O)(=O)c2ccc(F)c(F)c2)cc1)c1cc2ccncc2s1` [N-({4-[(3,4-difluorobenzene)sulfonyl]phenyl}methyl)thieno[2,3-c]pyridine-2-carboxamide], the IC50 is 8.1 nM in assay [2] (SRB assay) and 9 nM in assay [3] (NAMPT enzymatic reaction).

Turning to `CCc1cccc(S(=O)(=O)c2ccc(CNC(=O)c3cnc4nccn4c3)cc2)c1`, the IC50 in assay [2] (SRB) came out at 4.1 nM; in assay [3] (NAMPT enzymatic reaction), 3.8 nM.

Turning to `COc1ccc(F)c(S(=O)(=O)c2ccc(CNC(=O)c3cc4ccncc4s3)cc2)c1`, the results for the IC50 in assay [2] (SRB) and in assay [3] (NAMPT enzymatic reaction) were 12.8 nM and 2.3 nM, respectively.

`COc1cc(C)c(S(=O)(=O)c2ccc(CNC(=O)c3ccc4nccn4c3)cc2)cc1C`: the IC50 in assay [2] (SRB) is 6 nM; in assay [3] (NAMPT enzymatic reaction), 28.1 nM.

For `O=C(NCc1ccc(S(=O)(=O)c2cccc3cccnc23)cc1)c1cc2ccncc2o1` [N-{[4-(quinoline-8-sulfonyl)phenyl]methyl}furo[2,3-c]pyridine-2-carboxamide], the IC50 in assay [2] (SRB) came out at 6 nM; in assay [3] (NAMPT enzymatic assay), 7.6 nM.

Regarding `O=C(NCc1ccc(S(=O)(=O)c2cncc(C(F)(F)F)c2)cc1)c1ccc2nccn2c1` [N-({4-[5-(trifluoromethyl)pyridine-3-sulfonyl]phenyl}methyl)imidazo[1,2-a]pyridine-6-carboxamide], the IC50 was 1.3 nM in assay [2] (SRB) and 9 nM in assay [3] (NAMPT enzymatic assay).

On to `Cn1ncc2cccc(S(=O)(=O)c3ccc(CNC(=O)c4cc5ccncc5s4)cc3)c21` [N-{[4-(1-methyl-1H-indazole-7-sulfonyl)phenyl]methyl}thieno[2,3-c]pyridine-2-carboxamide], for which the results for the IC50 in assay [2] (SRB) and in assay [3] (NAMPT enzymatic assay) were 10.4 nM and 4.5 nM, respectively.

Turning to `CCCCOc1ccc(S(=O)(=O)c2ccc(CNC(=O)c3cc4ccncc4o3)cc2)cc1` [N-({4-[(4-butoxybenzene)sulfonyl]phenyl}methyl)furo[2,3-c]pyridine-2-carboxamide], the IC50 worked out at 13 nM in assay [2] (SRB) and 6.2 nM in assay [3] (NAMPT enzymatic reaction).

As to `Cc1ccc(S(=O)(=O)c2ccc(CNC(=O)c3cc4cnccc4[nH]3)cc2)c(C)c1` [N-({4-[(2,4-dimethylbenzene)sulfonyl]phenyl}methyl)-1H-pyrrolo[3,2-c]pyridine-2-carboxamide], the IC50 in assay [2] (SRB) was 12 nM; in assay [3] (NAMPT enzymatic assay), 21 nM.

As to `O=C(NCc1ccc(CCS(=O)(=O)c2ccccc2)cc1)c1cc2cnccc2[nH]1` [N-({4-[2-(benzenesulfonyl)ethyl]phenyl}methyl)-1H-pyrrolo[3,2-c]pyridine-2-carboxamide], the IC50 in assay [2] (SRB) was determined as 166 nM; in assay [3] (NAMPT enzymatic assay), 23 nM.

Turning to `COc1ccc(S(=O)(=O)c2ccc(CNC(=O)c3ccc4nccn4c3)cc2)cc1` [N-({4-[(4-methoxybenzene)sulfonyl]phenyl}methyl)imidazo[1,2-a]pyridine-6-carboxamide], the figures for the IC50 in assay [2] (SRB) and in assay [3] (NAMPT enzymatic reaction) were 8.66 nM and 9.74 nM, respectively.

As to `COc1cccc(S(=O)(=O)c2ccc(CNC(=O)c3cc4cnccc4[nH]3)cc2)c1` [N-({4-[(3-methoxybenzene)sulfonyl]phenyl}methyl)-1H-pyrrolo[3,2-c]pyridine-2-carboxamide], the IC50 in assay [2] (SRB assay) worked out at 4 nM; in assay [3] (NAMPT enzymatic reaction), 7 nM.

Consider `O=C(NCc1ccc(S(=O)(=O)c2ccc(C(F)(F)F)cc2F)cc1)c1cc2cnccc2[nH]1` [N-[(4-{[2-fluoro-4-(trifluoromethyl)benzene]sulfonyl}phenyl)methyl]-1H-pyrrolo[3,2-c]pyridine-2-carboxamide], for which the IC50 in assay [2] (SRB) is 28.1 nM; in assay [3] (NAMPT enzymatic assay), 80.2 nM.

As for `O=C(NCc1ccc(S(=O)(=O)c2ccc(-n3ccnc3)cc2)cc1)c1cnc2nccn2c1`, the values for the IC50 in assay [2] (SRB) and in assay [3] (NAMPT enzymatic assay) were 12.2 nM and less than 0.65 nM, respectively.
